Experimental data from US20230220105A1, “TUMOR ACTIVATED T CELL ENGAGERS AND METHODS OF USE THEREOF” (Janux Therapeutics, Inc., priority 2019, published 2023).

Legend:
[1] = test system: MAGE-A3 TCR (TCR-1); test: Kinetic binding of TCR to peptides (Octet BLI); settings: Table 3; Ala mutants of Peptide-5 and controls
Procedure: BLI based kinetic binding of TCR to peptides was measured using a ForteBio Octet RED96 instrument. Biotinylated peptides were first directly captured on streptavidin biosensors. Sensors were quenched using excess biocytin and then baselined in buffer. A dilution series of TCR was made and associated onto the peptide loaded biosensor. Association and dissociation signals were monitored in real-time. Signals were fit to a 1:1 binding model in order to derive binding constants, kon and koff, as well as KD.

[2] = test system: TCR-1 binding to MAGE-A3 pMHC; test: Inhibition of kinetic binding of TCR to its cognate pMHC (BLI); settings: Table 3
Procedure: First, biotinylated pMHC was captured on streptavidin biosensors. Sensors were quenched using excess biocytin and then baselined in buffer. Inhibitory peptide was titrated in a two fold dilution series starting from 100 uM and pre-incubated with a constant concentration of 50 nM TCR. Peptide and TCR mixtures were then associated onto the pMHC loaded biosensor. Zero concentration of inhibitory peptide or zero concentration of TCR were used as controls. Association and dissociation signals were monitored in real-time. The maximal association signal was normalized from 100% (0 uM inhibitory peptide control) to 0% (0 nM TCR control) and plotted versus log-scale inhibitory peptide concentration.

[3] = biological target: MAGE-A3 TCR (TCR-1); test: Equilibrium binding of TCR to peptides (ELISA)
Procedure: Peptide binding was also examined in an ELISA format. Biotinylated peptides were captured on neutravidin coated plates. TCR was then prepared in a half-log dilution series starting from 10 uM and titrated onto the peptide captured plates. […] The concentration of TCR required to observe half maximal binding signal (EC50) was then calculated using Graphpad Prism.

Row | Molecule | Octet BLI Binds TCR [1] | EC50 ([3]; Table 3) | also measured
1 | CC(C)[C@H](NC(=O)CNC(=O)CN)C(=O)N[C@@H](CO)C(=O)N[C@H]1CSSC[C@@H](C(=O)N[C@@H](Cc2c[nH]c3ccccc23)C(=O)N[C@H](C(=O)NCC(=O)NCC(=O)NCC(=O)NCC(=O)N[C@@H](CO)C(=O)NCCOCCOCCOCCOCCC(=O)N[C@@H](CCCCNC(=O)CCCC[C@@H]2SC[C@@H]3NC(=O)N[C@@H]32)C(N)=O)[C@@H](C)O)NC(=O)[C@H](Cc2ccccc2)NC(=O)[C@H](C)NC(=O)[C@H](CCC(=O)O)NC(=O)[C@H](CC(=O)O)NC(=O)[C@H](Cc2ccc(O)cc2)NC(=O)[C@H](C(C)C)NC(=O)[C@H](CC(=O)O)NC(=O)[C@H](C)NC1=O [Peptide-24] | Yes | – | Octet BLI Competes at 100 uM [2]: Yes
2 | GGNQCWEVYDQEFCSL [Peptide-9] | – | – | EC50 ([3]; Table 2, TCR-1 titrated on captured peptide): 0.05 µM
3 | CC(C)[C@H](NC(=O)CNC(=O)CN)C(=O)N[C@@H](CO)C(=O)N[C@H]1CSSC[C@@H](C(=O)N[C@@H](Cc2c[nH]c3ccccc23)C(=O)N[C@H](C(=O)NCC(=O)NCC(=O)NCC(=O)NCC(=O)N[C@@H](CO)C(=O)NCCOCCOCCOCCOCCC(=O)N[C@@H](CCCCNC(=O)CCCC[C@@H]2SC[C@@H]3NC(=O)N[C@@H]32)C(N)=O)[C@@H](C)O)NC(=O)[C@H](Cc2ccccc2)NC(=O)[C@H](C)NC(=O)[C@H](C)NC(=O)[C@H](CC(=O)O)NC(=O)[C@H](Cc2ccc(O)cc2)NC(=O)[C@H](C(C)C)NC(=O)[C@H](CC(=O)O)NC(=O)[C@H](CCCCN)NC1=O [Peptide-29] | No | – | –
4 | EVDPIGHLY [Peptide-34, MAGE-A3 antigen peptide, linear control absent MHC presentation, reference compound] | No | > 10 µM | binding to TCR-1, Ala scan and control peptides ([3]; relative to Peptide-5): lack of binding
5 | CC(C)[C@H](NC(=O)CNC(=O)CN)C(=O)N[C@@H](C)C(=O)N[C@H]1CSSC[C@@H](C(=O)N[C@@H](Cc2c[nH]c3ccccc23)C(=O)N[C@H](C(=O)NCC(=O)NCC(=O)NCC(=O)NCC(=O)N[C@@H](CO)C(=O)NCCOCCOCCOCCOCCC(=O)N[C@@H](CCCCNC(=O)CCCC[C@@H]2SC[C@@H]3NC(=O)N[C@@H]32)C(N)=O)[C@@H](C)O)NC(=O)[C@H](Cc2ccccc2)NC(=O)[C@H](C)NC(=O)[C@H](CCC(=O)O)NC(=O)[C@H](CC(=O)O)NC(=O)[C@H](Cc2ccc(O)cc2)NC(=O)[C@H](C(C)C)NC(=O)[C@H](CC(=O)O)NC(=O)[C@H](CCCCN)NC1=O [Peptide-22] | No | – | –
6 | CC(C)[C@@H]1NC(=O)[C@H](CC(=O)O)NC(=O)[C@H](CCCCN)NC(=O)[C@@H](NC(=O)[C@H](CO)NC(=O)[C@H](C)NC(=O)CNC(=O)CN)CSSC[C@@H](C(=O)N[C@@H](Cc2c[nH]c3ccccc23)C(=O)N[C@H](C(=O)NCC(=O)NCC(=O)NCC(=O)NCC(=O)N[C@@H](CO)C(=O)NCCOCCOCCOCCOCCC(=O)N[C@@H](CCCCNC(=O)CCCC[C@@H]2SC[C@@H]3NC(=O)N[C@@H]32)C(N)=O)[C@@H](C)O)NC(=O)[C@H](Cc2ccccc2)NC(=O)[C@H](C)NC(=O)[C@H](CCC(=O)O)NC(=O)[C@H](CC(=O)O)NC(=O)[C@H](Cc2ccc(O)cc2)NC1=O [Peptide-21] | Yes | – | Octet BLI Competes at 100 uM [2]: Yes
7 | CC(C)[C@H](NC(=O)CNC(=O)CN)C(=O)N[C@@H](CO)C(=O)N[C@H]1CSSC[C@@H](C(=O)N[C@@H](Cc2c[nH]c3ccccc23)C(=O)N[C@H](C(=O)NCC(=O)NCC(=O)NCC(=O)NCC(=O)N[C@@H](CO)C(=O)NCCOCCOCCOCCOCCC(=O)N[C@@H](CCCCNC(=O)CCCC[C@@H]2SC[C@@H]3NC(=O)N[C@@H]32)C(N)=O)[C@@H](C)O)NC(=O)[C@H](C)NC(=O)[C@H](C)NC(=O)[C@H](CCC(=O)O)NC(=O)[C@H](CC(=O)O)NC(=O)[C@H](Cc2ccc(O)cc2)NC(=O)[C@H](C(C)C)NC(=O)[C@H](CC(=O)O)NC(=O)[C@H](CCCCN)NC1=O [Peptide-30] | No | > 10 µM | –
8 | CC(C)[C@H](NC(=O)CNC(=O)CN)C(=O)N[C@@H](CO)C(=O)N[C@H]1CSSC[C@@H](C(=O)N[C@@H](Cc2c[nH]c3ccccc23)C(=O)N[C@H](C(=O)NCC(=O)NCC(=O)NCC(=O)NCC(=O)N[C@@H](CO)C(=O)NCCOCCOCCOCCOCCC(=O)N[C@@H](CCCCNC(=O)CCCC[C@@H]2SC[C@@H]3NC(=O)N[C@@H]32)C(N)=O)[C@@H](C)O)NC(=O)[C@H](Cc2ccccc2)NC(=O)[C@H](C)NC(=O)[C@H](CCC(=O)O)NC(=O)[C@H](CC(=O)O)NC(=O)[C@H](Cc2ccc(O)cc2)NC(=O)[C@H](C(C)C)NC(=O)[C@H](C)NC(=O)[C@H](CCCCN)NC1=O [Peptide-25] | Weak | – | –
9 | CC(C)[C@H](NC(=O)CNC(=O)CN)C(=O)N[C@@H](CO)C(=O)N[C@H]1CSSC[C@@H](C(=O)N[C@@H](Cc2c[nH]c3ccccc23)C(=O)N[C@H](C(=O)NCC(=O)NCC(=O)NCC(=O)NCC(=O)N[C@@H](CO)C(=O)NCCOCCOCCOCCOCCC(=O)N[C@@H](CCCCNC(=O)CCCC[C@@H]2SC[C@@H]3NC(=O)N[C@@H]32)C(N)=O)[C@@H](C)O)NC(=O)[C@H](Cc2ccccc2)NC(=O)[C@H](C)NC(=O)[C@H](CCC(=O)O)NC(=O)[C@H](CC(=O)O)NC(=O)[C@H](C)NC(=O)[C@H](C(C)C)NC(=O)[C@H](CC(=O)O)NC(=O)[C@H](CCCCN)NC1=O [Peptide-27] | No | > 10 µM | –
10 | ESDPIVAQY [Peptide-35, Titin peptide, linear control absent MHC presentation, reference compound] | No | > 10 µM | –
11 | CC(C)[C@H](NC(=O)CNC(=O)CN)C(=O)N[C@@H](CO)C(=O)N[C@H]1CSSC[C@@H](C(=O)N[C@@H](Cc2c[nH]c3ccccc23)C(=O)N[C@H](C(=O)NCC(=O)NCC(=O)NCC(=O)NCC(=O)N[C@@H](CO)C(=O)NCCOCCOCCOCCOCCC(=O)N[C@@H](CCCCNC(=O)CCCC[C@@H]2SC[C@@H]3NC(=O)N[C@@H]32)C(N)=O)[C@@H](C)O)NC(=O)[C@H](Cc2ccccc2)NC(=O)[C@H](C)NC(=O)[C@H](CCC(=O)O)NC(=O)[C@H](CC(=O)O)NC(=O)[C@H](Cc2ccc(O)cc2)NC(=O)[C@H](C)NC(=O)[C@H](CC(=O)O)NC(=O)[C@H](CCCCN)NC1=O [Peptide-26] | No | – | –
12 | CC(C)[C@H](NC(=O)CNC(=O)CN)C(=O)N[C@@H](CO)C(=O)N[C@@H](CS)C(=O)N[C@@H](CCCCN)C(=O)N[C@@H](CC(=O)O)C(=O)N[C@H](C(=O)N[C@@H](Cc1ccc(O)cc1)C(=O)N[C@@H](CC(=O)O)C(=O)N[C@@H](CCC(=O)O)C(=O)N[C@@H](C)C(=O)N[C@@H](Cc1ccccc1)C(=O)N[C@@H](C)C(=O)N[C@@H](Cc1c[nH]c2ccccc12)C(=O)N[C@H](C(=O)NCC(=O)NCC(=O)NCC(=O)NCC(=O)N[C@@H](CO)C(=O)NCCOCCOCCOCCOCCC(=O)N[C@@H](CCCCNC(=O)CCCC[C@@H]1SC[C@@H]2NC(=O)N[C@@H]21)C(N)=O)[C@@H](C)O)C(C)C [Peptide-31] | Weak | > 10 µM | –
